# Measured values from PubChem BioAssay AID1033 (Sanford-Burnham Center for Chemical Genomics, 2008).
# Calls of active or inactive are those of the source. How the calls were made is not given here.
# Target: Chaperone protein DnaK (Escherichia coli (strain K12)) (UniProt P0A6Y8)
# Assay: binders of DnaK substrate-binding domain, biophysical, NMR, chaperone (AID 1033)
# Settings: Purified DnaK SBD, NMR ligand binding
# Chain of Chaperone protein DnaK (Escherichia coli (strain K12)) (P0A6Y8 whole entry, looked up, the tested form may be a part): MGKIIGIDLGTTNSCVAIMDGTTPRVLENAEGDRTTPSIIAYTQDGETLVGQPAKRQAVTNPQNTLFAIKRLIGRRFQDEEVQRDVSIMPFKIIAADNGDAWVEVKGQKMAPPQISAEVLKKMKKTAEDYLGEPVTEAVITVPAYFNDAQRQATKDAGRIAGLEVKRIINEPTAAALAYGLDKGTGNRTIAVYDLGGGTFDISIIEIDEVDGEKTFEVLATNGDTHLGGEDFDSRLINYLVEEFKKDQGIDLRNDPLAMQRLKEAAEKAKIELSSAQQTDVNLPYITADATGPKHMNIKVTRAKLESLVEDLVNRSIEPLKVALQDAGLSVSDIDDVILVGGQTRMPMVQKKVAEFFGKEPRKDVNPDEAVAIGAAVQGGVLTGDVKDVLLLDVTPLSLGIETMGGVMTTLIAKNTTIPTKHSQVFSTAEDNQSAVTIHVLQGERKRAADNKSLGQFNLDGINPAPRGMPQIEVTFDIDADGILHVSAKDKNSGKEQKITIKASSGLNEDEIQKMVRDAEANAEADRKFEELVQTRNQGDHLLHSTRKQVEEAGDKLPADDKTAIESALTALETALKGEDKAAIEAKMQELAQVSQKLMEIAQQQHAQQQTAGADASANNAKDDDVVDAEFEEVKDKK
row,Compound,Kd
1,O=C1C2CCCCC2C(=O)N1c1nccs1 (stereo not drawn),> 4 mM (inactive)
2,CCn1c(-c2ccccc2)n[nH]c1=S,> 4 mM (inactive)
3,O=C(CSc1ccc(Cl)cc1)N1CCOCC1,> 4 mM (inactive)
4,O=C(CSc1ncn[nH]1)c1ccc2c(c1)OCO2,> 4 mM (inactive)
5,COc1ccccc1/C=C/CN1CCOCC1,> 4 mM (inactive)
6,CN1CCN(C(=O)C2CCCNC2)CC1 (stereo not drawn),> 4 mM (inactive)
7,Cn1c(=O)cc(N2CCCCC2)[nH]c1=O,> 4 mM (inactive)
8,Cc1ccc(S(C)(=O)=O)s1,> 4 mM (inactive)
9,NC(=O)NC1NC(=O)NC1=O (stereo not drawn),> 4 mM (inactive)
10,Cc1cccc(N2CCN(C(=O)c3ccncc3)CC2)c1C,> 4 mM (inactive)
11,COc1ccc2c(c1O)-c1c(OC)c(OC)cc3c1[C@H](C2)N(C)CC3,> 4 mM (inactive)
12,c1n[nH]cc1-c1cn[nH]c1,> 4 mM (inactive)
13,COC(=O)c1ccc(N2CCCC2)nc1,> 4 mM (inactive)
14,CSc1ncc(CO)n1Cc1ccccc1,> 4 mM (inactive)
15,NS(=O)(=O)c1ccc(NC(=O)c2ccccc2F)cc1,> 4 mM (inactive)
16,O=C1CNc2cc(C(=O)O)ccc2N1,> 4 mM (inactive)
17,Cc1ccc(-c2nnc3sc(-c4ccncc4)nn23)cc1,> 4 mM (inactive)
18,O=C1NC(=Nc2ccc(O)cc2)S/C1=C/c1ccco1,> 4 mM (inactive)
19,CS(C)=C1C(=O)NC(=O)N(Cc2ccc(F)cc2)C1=O,> 4 mM (inactive)
20,CCOC(=O)CN1C(=O)c2ccccc2C1=O,> 4 mM (inactive)

row,Compound,Kd
1,CN1CCN(CC(=O)N2CCc3ccccc32)CC1,> 4 mM (inactive)
2,Nc1nc(-c2ccccc2)cc(=O)[nH]1,> 4 mM (inactive)
3,CNS(=O)(=O)c1cccs1,> 4 mM (inactive)
4,NC1=NC(=O)C(CC(=O)Nc2ccccc2F)S1 (stereo not drawn),> 4 mM (inactive)
5,COc1ccc(-c2nc3nc(C)cc(C)n3n2)cc1,> 4 mM (inactive)
6,O=C(c1ccco1)N1CCCN(C(=O)c2ccco2)CC1,> 4 mM (inactive)
7,NCc1ccc(-n2cccn2)cc1,> 4 mM (inactive)
8,O=C(/C=C/c1ccc(O)c(O)c1)O[C@@H]1C[C@](O)(C(=O)O)C[C@@H](O)[C@H]1O,> 4 mM (inactive)
9,CC(=O)NC(c1ccccc1)c1cccnc1 (stereo not drawn),> 4 mM (inactive)
10,NC(=O)C1CCN(C(=S)Nc2ccccc2)CC1,> 4 mM (inactive)
11,FC(F)(F)c1cc(-c2ccco2)nc(N2CCOCC2)n1,> 4 mM (inactive)
12,c1ccc(-c2nc3ccccc3nc2-c2ccccn2)nc1,> 4 mM (inactive)
13,O=C(NCc1cccnc1)c1ccccn1,> 4 mM (inactive)
14,Cc1ccc2c(c1)CC[C@H]1CC(=O)CC[C@]21C,> 4 mM (inactive)
15,OC1COCc2nc3ccccc3n2C1 (stereo not drawn),> 4 mM (inactive)
16,O=C(CN1C(=O)c2cccc3cccc(c23)C1=O)NO,> 4 mM (inactive)
17,CC(=O)Nc1ccc(S(=O)(=O)N(C)C)cc1,> 4 mM (inactive)
18,N/C(=N/S(=O)(=O)c1cccs1)c1ccccc1,> 4 mM (inactive)
19,CCSc1nnc2[nH]c(=O)cc(C)n12,> 4 mM (inactive)
20,NCc1ccc(-c2csnn2)cc1,> 4 mM (inactive)

row,Compound,Kd
1,O=C(NCN1CCOCC1)c1cccnc1,> 4 mM (inactive)
2,[O-][n+]1onc2c1CCc1c-2nc(-c2ccccc2)n1O,> 4 mM (inactive)
3,COCC(=O)/C=C1\Sc2ccccc2N1C,> 4 mM (inactive)
4,CN1CCC(N2CCCC(C(N)=O)C2)CC1 (stereo not drawn),> 4 mM (inactive)
5,O=c1c2c(nc3nc(COc4ccccc4)[nH]n13)CCC2,> 4 mM (inactive)
6,COc1cc2cc[n+]3cc4c(OC)c(OC)ccc4cc3c2cc1OC,> 4 mM (inactive)
7,Cn1cnc2c(=S)[nH]c(=O)n(Cc3ccccc3)c21,> 4 mM (inactive)
8,COC(=O)N1CCN(c2ccc(OC)cc2)CC1,> 4 mM (inactive)
9,Cc1nn2c(-c3ccncc3)nnc2c2ccccc12,> 4 mM (inactive)
10,O=C(c1ccccc1F)N1CCN(c2ccccc2)CC1,> 4 mM (inactive)
11,COc1cc2nc(N3CCNCC3)nc(N)c2cc1OC,> 4 mM (inactive)
12,NCCCCN,> 4 mM (inactive)
13,N#Cc1cc(-c2ccccc2)oc1N,> 4 mM (inactive)
14,CC(=O)Nc1ccc2c(c1)CCC2=O,> 4 mM (inactive)
15,Cc1ccnc(NS(=O)(=O)c2cccs2)c1,> 4 mM (inactive)
16,CN(C)N1C(=O)C2C3C=CC(O3)C2C1=O (stereo not drawn),> 4 mM (inactive)
17,C=C[C@@](C)(O)CCC1C(=C)C[C@H](O)C2C(C)(C)CCCC12C (stereo partly drawn),> 4 mM (inactive)
18,C[C@H]1C[C@@H](O)[C@]2(O)[C@@]13CC(=O)OC[C@@]2(C)[C@](C)(O)C(=O)C3,> 4 mM (inactive)
